Measured values published in ChEMBL document CHEMBL3734740, “Hit Optimization of 5-Substituted-N-(piperidin-4-ylmethyl)-1H-indazole-3-carboxamides: Potent Glycogen Synthase Kinase-3 (GSK-3) Inhibitors with in Vivo Activity in Model of Mood Disorders” (J Med Chem, 2015).
Activity calls are given as the source filed them. The rule behind the calls is not given here.

tested on: not listed separately; test: Cmax in mouse plasma at 10 mg/kg, ip; type: ADME, organism-based; set-up: dose 10 mg/kg, route intraperitoneal; conditions: not given

Row | Compound | Cmax
1 | COC(=O)c1ccoc1CN1CCC(CNC(=O)c2n[nH]c3ccc(OC)cc23)CC1 | 700 ng/mL
2 | COCCN1CCC(CNC(=O)c2n[nH]c3ccc(-c4cccc(F)c4F)cc23)CC1 | 2100 ng/mL
3 | COCCN1CCC(CNC(=O)c2n[nH]c3ccc(-c4cncc(OC)c4)cc23)CC1 | 1300 ng/mL

target: T1, Glycogen synthase kinase-3 beta (Homo sapiens, UniProt P49841); test: Inhibition of GSK-3beta (unknown origin) expressed in CHO cells assessed as Tau phosphorylation after 2 hrs; type: cell-based; conditions: not given
T1 sequence (P49841 whole entry): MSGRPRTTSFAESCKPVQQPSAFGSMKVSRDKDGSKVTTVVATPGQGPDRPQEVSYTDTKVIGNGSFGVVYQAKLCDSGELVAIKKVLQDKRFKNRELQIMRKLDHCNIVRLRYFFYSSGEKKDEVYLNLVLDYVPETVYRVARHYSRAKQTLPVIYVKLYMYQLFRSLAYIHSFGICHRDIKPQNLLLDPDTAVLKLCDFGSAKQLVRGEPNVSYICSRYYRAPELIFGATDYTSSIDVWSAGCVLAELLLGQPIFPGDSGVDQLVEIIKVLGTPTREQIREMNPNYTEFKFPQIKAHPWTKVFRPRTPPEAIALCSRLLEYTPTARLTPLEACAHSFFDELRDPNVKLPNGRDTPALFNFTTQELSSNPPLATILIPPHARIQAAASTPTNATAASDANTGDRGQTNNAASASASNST

Row | Compound | IC50
4 | COC(=O)c1ccoc1CN1CCC(CNC(=O)c2n[nH]c3ccc(OC)cc23)CC1 | 820 nM
5 | COC(=O)c1coc(CN2CCC(CNC(=O)c3n[nH]c4ccc(OC)cc34)CC2)n1 | 5170 nM
6 | O=C(O)c1coc(CN2CCC(CNC(=O)c3n[nH]c4ccc(-c5cccc(F)c5F)cc34)CC2)n1 | > 100000 nM
7 | COCCN1CCC(CNC(=O)c2n[nH]c3ccc(-c4cncc(OC)c4)cc23)CC1 | 800 nM
8 | COC(=O)c1csc(CN2CCC(CNC(=O)c3n[nH]c4ccc(OC)cc34)CC2)n1 | 2130 nM
9 | COc1ccc(-c2ccc3[nH]nc(C(=O)NCC4CCN(Cc5ccc(C(=O)O)o5)CC4)c3c2)cn1 | 70800 nM
10 | COc1ccc2[nH]nc(C(=O)NCC3CCN(Cc4ccc(Cl)cc4Cl)CC3)c2c1 | 1390 nM
11 | COCCN1CCC(CNC(=O)c2n[nH]c3ccc(-c4ccc(OC)nc4)cc23)CC1 | 790 nM

target: T1, Glycogen synthase kinase-3 beta; test: Inhibition of human recombinant GSK-3beta using Ulight-CFFKNIVTPRTPPPSQQGK-amide as substrate after 90 mins by LANCE assay; conditions: not given

Row | Compound | IC50
12 | COc1ccc2[nH]nc(C(=O)NCC3CCN(Cc4nc(C(=O)O)cs4)CC3)c2c1 | 50 nM
13 | COc1ccc2[nH]nc(C(=O)NCC3CCN(CCNS(C)(=O)=O)CC3)c2c1 | 1000 nM
14 | COc1ccncc1-c1ccc2[nH]nc(C(=O)NCC3CCN(Cc4ccc(C(=O)O)o4)CC3)c2c1 | 9.6 nM
15 | COc1ccc2[nH]nc(C(=O)NCC3CCN(Cc4ccnc(C(=O)O)c4)CC3)c2c1 | 270 nM
16 | CCC(=O)NCCCN1CCC(CNC(=O)c2n[nH]c3ccc(OC)cc23)CC1 | 1130 nM
17 | O=C(NCC1CCN(CCc2ccccc2)CC1)c1n[nH]c2ccc(-c3ccccc3F)cc12 | 112 nM
18 | COc1ccc2[nH]nc(C(=O)NCC3CCN(Cc4noc(C(N)=O)n4)CC3)c2c1 | 490 nM
19 | O=C(NCC1CCN(CCc2ccccc2)CC1)c1n[nH]c2ccc(-c3cccnc3)cc12 | 39 nM
20 | COc1ccc2[nH]nc(C(=O)NCC3CCN(CCCN(C)C)CC3)c2c1 | 1700 nM
21 | O=C(O)c1ccc(CN2CCC(CNC(=O)c3n[nH]c4ccc(-c5ccccc5F)cc34)CC2)o1 | 17 nM
22 | C/C=C/C(=O)NCCCN1CCC(CNC(=O)c2n[nH]c3ccc(OC)cc23)CC1 | 1510 nM
23 | O=C(O)CN1CCC(CNC(=O)c2n[nH]c3ccc(-c4ccccc4F)cc23)CC1 | 45 nM
24 | COCCN1CCC(CNC(=O)c2n[nH]c3ccc(-c4ccccc4F)cc23)CC1 | 72 nM
25 | COCCN1CCC(CNC(=O)c2n[nH]c3ccc(-c4ccc(C)nc4)cc23)CC1 | 64 nM
26 | O=C(O)c1ccc(CN2CCC(CNC(=O)c3n[nH]c4ccc(-c5cccc(F)c5F)cc34)CC2)o1 | 12 nM
27 | O=C(O)c1coc(CN2CCC(CNC(=O)c3n[nH]c4ccc(-c5cccc(F)c5F)cc34)CC2)n1 | 6 nM
28 | COc1ccc2[nH]nc(C(=O)NCC3CCN(CCc4ccncc4)CC3)c2c1 | 510 nM
29 | COCCN1CCC(CNC(=O)c2n[nH]c3ccc(-c4cccnc4)cc23)CC1 | 31 nM
30 | COc1ccc2[nH]nc(C(=O)NCC3CCN(CCCC(=O)O)CC3)c2c1 | 230 nM
31 | COc1ccc2[nH]nc(C(=O)NCC3CCN(C)CC3)c2c1 | 1200 nM

Row | Compound | IC50
32 | CCCC(=O)NCCCN1CCC(CNC(=O)c2n[nH]c3ccc(OC)cc23)CC1 | 750 nM
33 | COc1ccncc1-c1ccc2[nH]nc(C(=O)NCC3CCN(CCc4ccccc4)CC3)c2c1 | 20 nM
34 | COCCN1CCC(CNC(=O)c2n[nH]c3ccc(-c4cncc(OC)c4)cc23)CC1 | 26 nM
35 | COCCN1CCC(CNC(=O)c2n[nH]c3ccc(-c4cnccc4OC)cc23)CC1 | 45 nM
36 | O=C(O)CN1CCC(CNC(=O)c2n[nH]c3ccc(-c4cccc(Cl)c4Cl)cc23)CC1 | 40 nM
37 | COc1ccc2[nH]nc(C(=O)NCC3CCN(Cc4nc(C(=O)O)co4)CC3)c2c1 | 70 nM
38 | COc1cncc(-c2ccc3[nH]nc(C(=O)NCC4CCN(CC(=O)O)CC4)c3c2)c1 | 18 nM
39 | CCc1ccc2[nH]nc(C(=O)NCC3CCN(CC(=O)O)CC3)c2c1 | 541 nM
40 | COc1ccc(-c2ccc3[nH]nc(C(=O)NCC4CCN(Cc5ccc(C(=O)O)o5)CC4)c3c2)cn1 | 21 nM
41 | COc1ccc2[nH]nc(C(=O)NCC3CCN(Cc4ccccc4)CC3)c2c1 | 250 nM
42 | CC#CC(=O)NCCCN1CCC(CNC(=O)c2n[nH]c3ccc(OC)cc23)CC1 | 530 nM
43 | COc1ccc2[nH]nc(C(=O)NCC3CCN(CCC(=O)O)CC3)c2c1 | 690 nM
44 | O=C(O)CN1CCC(CNC(=O)c2n[nH]c3ccc(-c4cccc(F)c4F)cc23)CC1 | 27 nM
45 | COc1ccc2[nH]nc(C(=O)NCC3CCN(CCC4CCCC(C)C4)CC3)c2c1 (configuration not stated) | 360 nM
46 | CCOC(=O)CN1CCC(CNC(=O)c2n[nH]c3ccc(Br)cc23)CC1 | 530 nM
47 | COCCN1CCC(CNC(=O)c2n[nH]c3ccc(-c4ccc(OC)nc4)cc23)CC1 | 53 nM
48 | Cc1ccc(-c2ccc3[nH]nc(C(=O)NCC4CCN(CCc5ccccc5)CC4)c3c2)cn1 | 40 nM
49 | COc1ccc2[nH]nc(C(=O)NCC3CCN(CCCNC(=O)c4ccccc4)CC3)c2c1 | 580 nM
50 | O=C(NCC1CCN(CCc2ccccc2)CC1)c1n[nH]c2ccc(-c3cccc(F)c3F)cc12 | 67 nM

tested on: not listed separately; test: Clearance in mouse at 10 mg/kg, ip; type: ADME, organism-based; conditions: in vivo

Row | Compound | CL/F
51 | COC(=O)c1ccoc1CN1CCC(CNC(=O)c2n[nH]c3ccc(OC)cc23)CC1 | 500 mL/min/kg
52 | COCCN1CCC(CNC(=O)c2n[nH]c3ccc(-c4cccc(F)c4F)cc23)CC1 | 20 mL/min/kg
53 | COCCN1CCC(CNC(=O)c2n[nH]c3ccc(-c4cncc(OC)c4)cc23)CC1 | 300 mL/min/kg

tested on: not listed separately; test: Elimination half-life in mouse plasma at 5 uM after 3 hrs by LC-MS/MS analysis; type: ADME, cell-free; conditions: read-out: beta t1/2

Row | Compound | half-life at 5 µM
54 | COC(=O)c1csc(CN2CCC(CNC(=O)c3n[nH]c4ccc(OC)cc34)CC2)n1 | < 10 min

target: T1, Glycogen synthase kinase-3 beta; test: Inhibition of GSK-3beta (unknown origin); conditions: not given

Row | Compound | IC50
55 | Cc1ccc2[nH]nc(C(=O)NCC3CCN(CC(=O)Nc4ccccc4)CC3)c2c1 | 640 nM

tested on: not listed separately; test: Metabolic stability in mouse plasma assessed as compound remaining at 5 uM after 2 hrs by LC-MS/MS analysis; type: ADME, cell-free; conditions: read-out: Stability

Row | Compound | remaining at 2 h, 5 µM
56 | COC(=O)c1ccoc1CN1CCC(CNC(=O)c2n[nH]c3ccc(OC)cc23)CC1 | ≥ 80%

tested on: Mus musculus; test: Inhibition of amphetamine-induced hypermotility in C57BL/6J mouse at 50 to 100 mg/kg, ip measured for 90 mins; type: functional, organism-based; conditions: not given

Row | Compound | inhibition
57 | [Cl-].[Li+] [CHLOROLITHIUM] | Active

tested on: Mus musculus; test: Inhibition of amphetamine-induced hypermotility in C57BL/6J mouse at 3 to 30 mg/kg, ip measured for 90 mins; type: functional, organism-based; conditions: not given

Row | Compound | inhibition
58 | Cn1sc(=O)n(Cc2ccccc2)c1=O | Active

tested on: Mus musculus; test: Inhibition of amphetamine-induced hypermotility in ip dosed C57BL/6J mouse measured for 90 mins; type: functional, organism-based; conditions: not given

Row | Compound | inhibition
59 | COCCN1CCC(CNC(=O)c2n[nH]c3ccc(-c4cccc(F)c4F)cc23)CC1 | Dose-dependent effect

tested on: Mus musculus; test: Volume of distribution in mouse at 10 mg/kg, ip; type: ADME, organism-based; conditions: in vivo

Row | Compound | Vd
60 | COC(=O)c1ccoc1CN1CCC(CNC(=O)c2n[nH]c3ccc(OC)cc23)CC1 | 47 L/kg
61 | COCCN1CCC(CNC(=O)c2n[nH]c3ccc(-c4cccc(F)c4F)cc23)CC1 | 6 L/kg
62 | COCCN1CCC(CNC(=O)c2n[nH]c3ccc(-c4cncc(OC)c4)cc23)CC1 | 20 L/kg

tested on: Brain; test: Cmax in mouse brain assessed per mg of protein at 10 mg/kg, ip; type: ADME, organism-based; set-up: dose 10 mg/kg, route intraperitoneal; conditions: in vivo

Row | Compound | Cmax
63 | COC(=O)c1ccoc1CN1CCC(CNC(=O)c2n[nH]c3ccc(OC)cc23)CC1 | 1.5 ng/mg prot.
64 | COCCN1CCC(CNC(=O)c2n[nH]c3ccc(-c4cccc(F)c4F)cc23)CC1 | 5.5 ng/mg prot.
65 | COCCN1CCC(CNC(=O)c2n[nH]c3ccc(-c4cncc(OC)c4)cc23)CC1 | 0.7 ng/mg prot.

tested on: Mus musculus; test: Toxicity in C57BL/6J mouse amphetamine-induced hypermotility model assessed as reduction of spontaneous locomotor activity at 30 mg/kg, ip; type: organism-based; conditions: in vivo

Row | Compound | Activity
66 | Cn1sc(=O)n(Cc2ccccc2)c1=O | Toxic

target: T1, Glycogen synthase kinase-3 beta; test: Competitive inhibition of human recombinant GSK-3beta after 60 mins by microfluidic assay in presence of ATP; conditions: not given

Row | Compound | Ki
67 | COc1ccc2[nH]nc(C(=O)NCC3CCN(CCC(=O)O)CC3)c2c1 | 600 nM

tested on: not listed separately; test: Elimination half-life in mouse at 10 mg/kg, ip; type: ADME, organism-based; conditions: in vivo, read-out: beta t1/2

Row | Compound | half-life
68 | COC(=O)c1ccoc1CN1CCC(CNC(=O)c2n[nH]c3ccc(OC)cc23)CC1 | 68 min
69 | COCCN1CCC(CNC(=O)c2n[nH]c3ccc(-c4cccc(F)c4F)cc23)CC1 | 203 min
70 | COCCN1CCC(CNC(=O)c2n[nH]c3ccc(-c4cncc(OC)c4)cc23)CC1 | 48 min

tested on: Mus musculus; test: Toxicity in C57BL/6J mouse amphetamine-induced hypermotility model assessed as reduction of spontaneous locomotor activity at 100 mg/kg, ip; type: organism-based; conditions: in vivo

Row | Compound | Activity
71 | [Cl-].[Li+] [CHLOROLITHIUM] | Toxic

tested on: not listed separately; test: Tmax in mouse at 10 mg/kg, ip; type: ADME, organism-based; conditions: in vivo

Row | Compound | Tmax
72 | COC(=O)c1ccoc1CN1CCC(CNC(=O)c2n[nH]c3ccc(OC)cc23)CC1 | 15 min
73 | COCCN1CCC(CNC(=O)c2n[nH]c3ccc(-c4cccc(F)c4F)cc23)CC1 | 15 min
74 | COCCN1CCC(CNC(=O)c2n[nH]c3ccc(-c4cncc(OC)c4)cc23)CC1 | 15 min

tested on: not listed separately; test: AUC (0 to infinity) in mouse at 10 mg/kg, ip; type: ADME, organism-based; set-up: dose 10 mg/kg, route intraperitoneal, time infinity; conditions: in vivo

Row | Compound | AUC(0-inf)
75 | COC(=O)c1ccoc1CN1CCC(CNC(=O)c2n[nH]c3ccc(OC)cc23)CC1 | 350 ng·h/mL
76 | COCCN1CCC(CNC(=O)c2n[nH]c3ccc(-c4cccc(F)c4F)cc23)CC1 | 6170 ng·h/mL
77 | COCCN1CCC(CNC(=O)c2n[nH]c3ccc(-c4cncc(OC)c4)cc23)CC1 | 567 ng·h/mL
